According to ChEMBL document CHEMBL1154562, “Malevamides A-C, new depsipeptides from the marine cyanobacterium Symploca laete-viridis” (J Nat Prod, 2000):
Activity calls are given as the source filed them.

Assays:
Assay type in all cases: functional, cell-based
P388 = assay: Cytotoxicity against mouse P388 cells at 2 ug/mL
A549 = assay: Cytotoxicity against human A549 cells at 2 ug/mL
HT-29 = assay: Cytotoxicity against human HT29 cells at 2 ug/mL

Measured: Activity

CCCCC(C)C(=O)N1CCC[C@H]1C(=O)N(C)C(Cc1ccccc1)C(=O)NCC(=O)N(C)[C@@H](C(=O)N[C@H](C(=O)NCC(=O)N(C)C(Cc1ccccc1)C(=O)N1CCC[C@@H]1C(=O)OC)[C@@H](C)CC)C(C)C (some centres undefined)
inactive: P388 | A549 | HT-29

CCCC1NC(=O)[C@H](Cc2ccccc2)N(C)C(=O)[C@@H]2CCCN2C(=O)C(C(C)C)N(C)C(=O)[C@@H]2CCCN2C(=O)[C@H]([C@@H](C)CC)NC(=O)C(C(C)C)N(C)C(=O)[C@@H]2CCCN2C(=O)C(C(C)C)N(C)C(=O)C(C(C)C)N(C)C(=O)[C@H](C(C)C)NC(=O)[C@H](C)N(C)C(=O)[C@@H](C(C)C)OC(=O)C1C (some centres undefined)
inactive: P388 | A549 | HT-29

C#CCCCC1NC(=O)[C@H]([C@@H](C)CC)N(C)C(=O)[C@@H]2CCCN2C(=O)[C@@H]2CCCN2C(=O)[C@H](CC(C)C)NC(=O)[C@H](C(C)C)N(C)C(=O)[C@H](C)NC(=O)[C@@H](C)N(C)C(=O)[C@H](Cc2ccccc2)N(C)C(=O)[C@H](COC)N(C)C(=O)[C@H](C(C)C)N(C)C(=O)[C@@H]2CCCN2C(=O)[C@H](C)NC(=O)[C@H](C(C)C)OC(=O)C1C (some centres undefined)
inactive: P388 | A549 | HT-29
